Entries after “also recorded” stand apart in the source; their conditions may differ. Where no end group is shown, it is not given here.

One sequence from US11377501B2, “Peptide having high affinity for PD-L1 protein and use thereof” (priority 2017, dated 2022) can be followed below.

Test [1] deals with T1, recombinant human PD-L1 protein expressed on CHO cell surface (Homo sapiens, UniProt Q9NZQ7).
T1 construct: expressed in transfected cells; host or cells: CHO cell line
The test is described as follows: Binding of FITC-labeled PPLC peptide to PD-L1 expressed on CHO cell surface (flow cytometry, fluorescence confocal). The following applies: CHO cells transfected with human PD-L1, FITC-labeled peptide, flow cytometry and confocal. In kind it is cell-based. The procedure:
The recombinant plasmid expressing recombinant human PD-L1 protein was transfected into CHO cell line and incubated for 36 hours. After incubation, anti-PD-L1 monoclonal antibody or PPLC peptide labeled with FITC was added and incubated at 4° C. for 30 minutes. After incubation, flow cytometry was performed (FIG. 3). After transfection of the plasmid, the cells were further cultured for 36 hours, and then the PPLC peptide labeled with FITC was added and incubated at 37° C. for 30 minutes. After incubation, fluorescence confocal detection was performed (FIG. 4).
The recombinant plasmid expressing recombinant human PD-L1 protein was transfected into CHO cell line and incubated for 36 hours. After incubation, anti-PD-L1 monoclonal antibody or PPLC peptide labeled with FITC was added, and incubated at 4° C. for 30 minutes. After incubation, flow cytometry was performed. After transfection of the plasmid, the cells were further cultured for 36 hours, and then the PPLC peptide labeled with FITC was added, and incubated at 37° C. for 30 minutes. After incubation, fluorescence confocal detection was performed.

For a further test, the target named is PD-1/PD-L1 (Homo sapiens, UniProt Q9NZQ7). Nature of the test: Competitive binding ELISA between PPLC peptide and PD-1 to PD-L1 protein. The following applies: 2 μg/ml coated PD-L1, 1 μg/ml PD-1 protein. How it is done:
A 96-well ELISA plate was coated with 2 μg/ml PD-L1 protein at 4° C. overnight. Different concentrations of PPLC peptide and 1 μg/ml PD-1 protein were mixed and incubated together. After incubation, rabbit anti-human PD-1 monoclonal antibody was added as primary antibody, and then HRP-conjugated goat anti-rabbit IgG monoclonal antibody was added as secondary antibody. After ABTS color development, the OD value at 410 nm was measured using a M5 microplate reader, and GraphPad Prism 6 was used for plotting and analysis.
A 96-well ELISA plate was coated with 2 μg/ml PD-L1 protein at 4° C. overnight. Different concentrations of PPLC peptide and 1 μg/ml of PD-1 protein were mixed and incubated together. After incubation, rabbit anti-human PD-1 monoclonal antibody was added as primary antibody, and then HRP-conjugated goat anti-rabbit IgG monoclonal antibody was added as secondary antibody. After ABTS color development, the OD value at 410 nm was measured using a M5 microplate reader, and GraphPad Prism 6 was used for plotting and analysis.

For a further test, the system named is mouse tumor. The test is described as follows: Effect of PPLC peptide on tumor volume and survival in mouse tumor model. In kind it is in vivo. The following applies: subcutaneous tumors in female Balb/c mice. How it is done: The experimental animals were divided into two groups: PBS group and PPLC group. Tumors were injected subcutaneously into 6 weeks old female Balb/c mice. Two weeks later, when the tumor size reached 100 mm^3, PPLC drug treatment was performed. The size of the mouse tumor was measured daily and the change was recorded.
The experimental animals were divided into two groups: PBS group and PPLC group. Tumors were injected subcutaneously into female Balb/c mice. Two weeks later, when the tumor size reached 100 mm^3, PPLC drug treatment was performed. The size of the mouse tumor was measured daily and the change was recorded.

T1 sequence (Q9NZQ7 19-290): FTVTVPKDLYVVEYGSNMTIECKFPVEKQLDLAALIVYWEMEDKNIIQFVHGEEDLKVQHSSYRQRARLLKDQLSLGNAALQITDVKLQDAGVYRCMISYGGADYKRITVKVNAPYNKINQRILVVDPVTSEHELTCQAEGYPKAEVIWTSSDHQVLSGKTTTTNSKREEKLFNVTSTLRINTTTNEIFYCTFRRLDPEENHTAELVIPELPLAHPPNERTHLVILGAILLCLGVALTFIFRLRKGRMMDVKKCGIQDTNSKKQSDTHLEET
Sequence of PD-1/PD-L1 (Q9NZQ7 19-238 limits assumed): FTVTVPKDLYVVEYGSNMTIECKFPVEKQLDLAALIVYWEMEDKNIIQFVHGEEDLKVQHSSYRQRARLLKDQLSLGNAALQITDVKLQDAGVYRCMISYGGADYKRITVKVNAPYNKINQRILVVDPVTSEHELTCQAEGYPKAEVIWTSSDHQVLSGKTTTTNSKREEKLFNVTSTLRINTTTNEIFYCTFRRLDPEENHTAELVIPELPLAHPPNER

As for VSVSHFQKVWVV [PPLC], the “binding to PD-L1 protein expressed on the cell surface” value in test [1] was “can efficiently bind to the PD-L1 protein expressed on the cell surface; also recorded: has a high affinity for PD-L1 expressed on the surface of CHO cells”. Further, the “blocking of the binding of PD-1/PD-L1” value on PD-1/PD-L1 is recorded as “can effectively block the binding of PD-1/PD-L1”. Further, the “growth rate of mouse tumor / tumor size” value in the test with mouse tumor (treatment from tumor size 100 mm^3, versus PBS group) is “can significantly reduce the growth rate of mouse tumor; also recorded: significantly smaller than that of the control group”. Also, the “survival time of mice” value in the test with mouse tumor (versus PBS group) is “prolong the survival time of mice”.
